Laboratory results taken from patent US7977082B2, “Isomaltulose synthases, polynucleotides encoding them and uses therefor” (The University of Queensland of St. Lucia, priority 2001, dated 2011).

How the values were obtained:
[1] = test system: purified SI from Klebsiella sp. 14S; test: Inhibition of isomaltulose production by glucose and fructose; type: biochemical; details: 277 mM glucose or fructose
Experimental: (§1) SI activity was measured by incubating the purified enzyme with different sucrose concentrations (3, 6, 15, 58, 146, 292, 584, 877, 1169 and 1461 mM) under standard assay conditions, and also with addition of glucose, fructose or both to a final concentration of 277 mM. Data were analyzed according to the method of Lineweaver and Burk (Voet and Voet, 1995) to calculate Km and Vmax values.

[2] = test system: purified SI from P. dispersa 68J; test: as above; type: biochemical; details: 277 mM glucose or fructose
Experimental: as §1

P. dispersa 68J = test: Growth in BP medium with different sugars; type: cell-based; details: 2% sugar added to BP medium, 18 h incubation at 30°C
Experimental: (§2) Isomaltulose production was tested using cells grown in LB and in a basal peptone medium (BP, comprising 1% BBL gelysate peptone and 0.5% NaCl, adjusted to pH 7.0 prior to autoclaving). Glucose, fructose, sucrose, lactose, maltose or isomaltulose was added to the cooled media, from a filter-sterilised stock. The media containing 4% (w/v) sucrose are referred to as SLB and SBP respectively.
(§3) Inoculum of 100 μL from a culture grown for 12 h in LB medium was added to 25 mL growth medium in a 250 mL flask. After 18 h at 30° C. on a shaker at 225 rpm, OD600 was used to measure growth. Cultures were diluted with growth medium to OD600=1.50 (approximately half the cell density of a saturated culture in SLB). Aliquots of 1 mL were harvested by centrifugation at 5000×g for 10 min and washed three times with 0.1 M citrate/phosphate buffer (pH 6.0). The cell pellets were resuspended in 0.4 mL of 0.1 M citrate/phosphate buffer (pH 6.0) containing 50% sucrose (w/v). Culture supernatant was filtered through a 0.2 μm filter (Pall Acrodisc), and 0.1 mL was mixed with 0.4 mL of 0.1 M citrate/phosphate buffer (pH 6.0) containing 50% sucrose (w/v), for parallel testing of culture filtrate and harvested cells in the SI assay.

[3] = test system: P. mesoacidophila sucrose isomerase (SI); details: Nagai et al., 1994; Véronèse and Perlot, 1998; cited from earlier work
[4] = test system: K. plymuthica sucrose isomerase (SI); details: Nagai et al., 1994; Véronèse and Perlot, 1998; cited from earlier work
[5] = test system: P. rubrum sucrose isomerase (SI); details: Nagai et al., 1994; Véronèse and Perlot, 1998; cited from earlier work
[6] = molecular target: T1, Klebsiella sp. 14S sucrose isomerase (SI), carboxy-terminal 6×His tag (SEQ ID NO: 52) (Klebsiella planticola, UniProt Q6XKX6); test: Sucrose isomerase kinetics, purified SI from Klebsiella sp. 14S (isomaltulose production), with or without glucose/fructose; type: biochemical; details: glucose vs fructose, 0.277 M, various sucrose concentrations
T1 sequence (Q6XKX6 29-598): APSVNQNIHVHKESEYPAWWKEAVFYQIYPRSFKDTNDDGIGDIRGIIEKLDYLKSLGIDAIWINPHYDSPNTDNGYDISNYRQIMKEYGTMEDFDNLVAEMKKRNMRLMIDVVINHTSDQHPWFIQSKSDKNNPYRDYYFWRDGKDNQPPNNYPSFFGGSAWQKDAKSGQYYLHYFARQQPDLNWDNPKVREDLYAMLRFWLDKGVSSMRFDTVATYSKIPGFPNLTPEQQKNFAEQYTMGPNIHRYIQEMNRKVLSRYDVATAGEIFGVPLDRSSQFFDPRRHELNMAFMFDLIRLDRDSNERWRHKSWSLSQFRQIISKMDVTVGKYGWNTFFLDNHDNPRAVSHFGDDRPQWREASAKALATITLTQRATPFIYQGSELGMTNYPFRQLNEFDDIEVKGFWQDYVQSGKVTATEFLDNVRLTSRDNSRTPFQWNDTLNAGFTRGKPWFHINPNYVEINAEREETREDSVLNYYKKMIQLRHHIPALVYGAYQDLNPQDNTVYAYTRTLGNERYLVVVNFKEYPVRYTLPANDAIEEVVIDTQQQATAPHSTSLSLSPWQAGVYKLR
Experimental: The pET24b vector introduces a carboxy-terminal 6×His tag (SEQ ID NO: 52) on expressed proteins, which were purified by adsorption to Ni-NTA agarose (Qiagen) and elution with 25 mM NaH2PO4, 150 mM NaCl, 125 mM imidazole buffer (pH8.0) following the manufacturer's instructions. For storage, the eluted solution was diluted with 50% glycerol. The purity of SI proteins was tested by SDS-PAGE as described below. A batch procedure using Ni-NTA agarose in suspension yielded predominantly (80-95%) SI with a background of several other protein bands. A procedure using Ni-NTA agarose in adsorption columns yielded preparations containing a single protein band. […]
Enzyme activities were measured by incubating 5 μl of purified enzyme with 95 μL of sucrose solution at a final concentration of 584 mM in 0.1 M citrate/phosphate buffer (pH 6.0) at 30° C. Sugar profiles in the reaction mix were analysed at intervals by CE as described previously. […]
as §1

[7] = molecular target: T2, Pantoea dispersa 68J sucrose isomerase (SI), mature, SEQ ID NO: 10, carboxy-terminal 6×His tag (SEQ ID NO: 52) (Pantoea dispersa, UniProt Q6XNK6); test: Sucrose isomerase kinetics, purified SI from P. dispersa 68J (isomaltulose production), with or without glucose/fructose; type: biochemical; details: glucose vs fructose, 0.277 M, various sucrose concentrations
T2 sequence (Q6XNK6 34-598): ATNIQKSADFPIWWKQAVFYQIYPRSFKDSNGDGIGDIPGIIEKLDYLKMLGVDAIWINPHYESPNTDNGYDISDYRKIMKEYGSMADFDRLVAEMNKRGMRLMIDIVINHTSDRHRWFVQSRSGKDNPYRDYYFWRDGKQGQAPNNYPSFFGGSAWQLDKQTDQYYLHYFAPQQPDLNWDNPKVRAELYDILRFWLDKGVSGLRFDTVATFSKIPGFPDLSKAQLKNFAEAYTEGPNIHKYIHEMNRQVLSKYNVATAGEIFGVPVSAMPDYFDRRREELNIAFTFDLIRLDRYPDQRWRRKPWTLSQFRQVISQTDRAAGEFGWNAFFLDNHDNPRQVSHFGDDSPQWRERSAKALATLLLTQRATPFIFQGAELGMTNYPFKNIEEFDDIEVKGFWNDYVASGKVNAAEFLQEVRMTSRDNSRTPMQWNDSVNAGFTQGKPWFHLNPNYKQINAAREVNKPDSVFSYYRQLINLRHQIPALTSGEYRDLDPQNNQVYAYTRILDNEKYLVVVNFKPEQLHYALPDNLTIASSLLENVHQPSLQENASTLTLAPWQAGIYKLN
Experimental: (§4) The pET24b vector introduces a carboxy-terminal 6×His tag (SEQ ID NO: 52) on expressed proteins, which were purified by adsorption to Ni-NTA agarose (Qiagen) and elution with 25 mM NaH2PO4, 150 mM NaCl, 125 mM imidazole buffer (pH8.0) following the manufacturer's instructions. For storage, the eluted solution was diluted with 50% glycerol. The purity of SI proteins was tested by SDS-PAGE as described below. A batch procedure using Ni-NTA agarose in suspension yielded predominantly (80-95%) SI with a background of several other protein bands. A procedure using Ni-NTA agarose in adsorption columns yielded preparations containing a single protein band. Unless otherwise specified, this is the form of the purified SI enzymes used for biochemical characterisation.
(§5) Enzyme activities were measured by incubating 5 μl of purified enzyme with 95 μL of sucrose solution at a final concentration of 584 mM in 0.1 M citrate/phosphate buffer (pH 6.0) at 30° C. Sugar profiles in the reaction mix were analysed at intervals by CE as described previously. One unit (U) of SI activity was defined as the amount of enzyme that could release 1 μmol of isomaltulose in one minute at the initial stage of the reaction.
as §1

[8] = test system: E. rhapontici sucrose isomerase (SI); details: Nagai et al., 1994; Véronèse and Perlot, 1998; cited from earlier work
E. rhapontici WAC2928 = test: Growth in BP medium with different sugars; type: cell-based; details: 2% sugar added to BP medium, 18 h incubation at 30°C
Experimental: as §2, §3

[9] = Storage stability of purified SI proteins; type: physicochemical; details: elution buffer diluted with 50% glycerol
Experimental: The purified fresh enzymes from SDS-PAGE had specific activities for isomaltulose production of: E. rhapontici: 35 U mg^−1 protein, Klebsiella sp.: 95 U mg^−1 protein and P. dispersa: 632 U mg^−1 protein. The purified SI from E. rhapontici lost function during overnight storage at −20° C. in elution buffer diluted with 50% glycerol. In contrast, the purified enzymes from 14S or P. dispersa retained 100% of the fresh enzyme efficiency for isomaltulose production after 6-month storage at −20° C., or 60% after 15-day storage at room temperature in the same buffer. Because of instability, the E. rhapontici SI was not characterised further in purified form. Cheetham et al., (1984) found substantial differences between E. rhapontici strains for SI stability in immobilized cells, and the enzyme from strain NCPPB 1578 was stable in purified form (Cheetham, 1984).
as §4

[10] = Assay of isolated (purified) SI enzyme activity; type: biochemical; details: purified fresh His-tagged enzymes
Experimental: as §4, §5
The enzymes were incubated with sucrose at different pH ranging from 2.0 to 10.6. The solution of pH 2.0 was buffered in 0.2 M KCl; pH 3.0 to pH 9.0 were in 0.1 M citrate/phosphate buffer; pH 10.0 to pH 10.6 were in 0.2 M glycine buffer. The effect of temperature from 10° C. to 70° C. was measured at pH 6.0. […]

[11] = Conversion of sucrose to isomaltulose in transgenic sugarcane callus expressing SI genes; type: cell-based; details: cell extracts of transgenic sugarcane callus; 3 of 3 68J lines, 3 of 7 14S lines
From the text: The sucrose isomerase (SI) gene insert in the pET 24b vector was further cloned between the Ubi promoter from the maize ubi-l gene (Christensen and Quail, 1996, Transgen. Res. 5: 215-218) and the Agrobacterium nos terminator (Bevan et al., 1983, Nature 304: 183-187) to drive expression in sugarcane cells.
Plasmids with the sucrose isomerase genes (pU3ZErw, pU3Z14s or pU3Z68J) and the aph A construct plasmid pEmuKN (as a selectable marker) were isolated by alkaline extraction (Sambrook et al., 1989, supra), and dissolved in TE buffer. Plasmid intactness and absence of genomic DNA or RNA were checked by gel electrophoresis and concentration was measured by spectrophotometry. The sucrose isomerase (UbiSI) gene construct and selectable marker construct were co-precipitated onto tungsten microprojectiles and introduced into sugarcane callus, followed by selection for transformed callus, and regeneration of transgenic plants, essentially described by Bower et al. (1996, Molec. Breed. 2: 239-249).
Precipitation reactions were conducted by adding the following at 4° C. in turn to a 1.5 mL microfuge tube: 5 μL pEmuKN plasmid DNA (1 mg/mL), 5 μL UbiSI plasmid DNA (1 μg/μL), 50 μL tungsten (Bio-Rad M10, 100 μg/μL), 50 μL CaCl2 (2.5M), 20 μL spermidine (100 mM free base). […]

Molecule: O=C(CO)[C@@H](O)[C@H](O)[C@H](O)CO [fructose]
- mode of inhibition of isomaltulose production [1]: competitive inhibitors
- mode of inhibition of isomaltulose production [2]: competitive inhibitors
- effect on growth of P. dispersa 68J (P. dispersa 68J): supported faster growth

Molecule: OC[C@H]1OC(O)[C@H](O)[C@@H](O)[C@@H]1O (some centres unmarked) [glucose]
- Inhibition of activity [3]: inhibit activity
- Inhibition of activity [4]: inhibit activity
- Inhibition of activity [5]: inhibit activity
- Relative inhibition [6]: stronger inhibition than fructose
- Relative inhibition [7]: stronger inhibition than fructose
- Inhibition of activity [8]: inhibit activity

Molecule: OC[C@H]1O[C@H](OC[C@H]2OC(O)(CO)[C@@H](O)[C@@H]2O)[C@H](O)[C@@H](O)[C@@H]1O (stereo partly drawn) [isomaltulose, α-D-glucopyranosyl-1,6-D-fructofuranose]
- effect on growth of P. dispersa 68J (P. dispersa 68J): little effect
- effect on growth of E. rhapontici WAC2928 (E. rhapontici WAC2928): substantially enhanced growth

B1: Erwinia rhapontici: sucrose isomerase cloned from Erwinia rhapontici WAC2928, SEQ ID NO: 2, mature polypeptide SEQ ID NO: 4 (protein, listed as Erwinia rhapontici)
chain: MSSQELKAAVAIFLATTFSATSYQACSAGPDTAPSLTVQQSNALPTWWKQAVFYQVYPRSFKDTNGDGIGDLNGIIENLDYLKKLGIDAIWINPHYDSPNTDNGYDIRDYRKIMKEYGTMEDFDRLISEMKKRNMRLMIDIVINHTSDQHAWFVQSKSGKNNPYRDYYFWRDGKDGHAPNNYPSFFGGSAWEKDDKSGQYYLHYFAKQQPDLNWDNPKVRQDLYDMLRFWLDKGVXGLRFDTVATYSKIPNFPDLSQQQLKNFAEEYTKGPKIHDYVNEMNREVLSHYDIATAGEIFGVPLDKSIKFFDRRRNELNIAFTFDLIRLDRDADERWRRKDWTLSQFRKIVDKVDQTAGEYGWNAFFLDNHDNPRAVSHFGDDRPQWREHAAKALATLTLTQRATPFIYQGSELGMTNYPFKKIDDFDDVEVKGFWQDYVETGKVKAEEFLTNVRQTSRDNSRTPFQWDASKNAGFTSGTPWLKINPNYKEINSADQINNPNSVFNYYRKLINIRHDIPALTYGSYIDLAPDNNSVYAYTRTFGAEKYLVVINFKEEVMHYTLPGDLSINKVITENNSHTIVNKNDVEDPRGATSVCSPFQAQKRPGDPGYSAAHSIRFLPRFFASYRGDIHAFK
modifications: not fully specified; sig_peptide (1)..(36); mat_peptide (37)..(632); MOD_RES (200)..(200) Any amino acid
- function after overnight storage at −20° C. [9]: lost function
- specific activity for isomaltulose production [10]: 35 U mg^−1 protein
- isomaltulose peak relative to sucrose peak on the CE electrograph [11]: even lower isomaltulose levels than the 14S lines
